Measurements as given in patent publication EP0350948B1, “Porphyrin derivatives” (TOYOHAKKA KOGYO KABUSHIKI KAISHA, priority 1988, dated 1990).
Each block holds one compound with its values, some of them ahead of it.

Key:
[1] = tested on: nitrosoamine-induced pancreatic cancer; test: in vivo hemorrhagic necrosis effect; design: species or system hamsters; key to Hemorrhagic necrosis effect: four scales of G4, G3, G2 and G1; four scales of G4, G3, G2 and G1; four scales of G4, G3, G2 and G1; four scales of G4, G3, G2 and G1; conditions: for Hemorrhagic necrosis effect: intensity of hemorrhagic necrosis at 24 hours following i.v. administration, and pathological study; for photograph of a cancer mass (Fig. 2) / photograph of a cancer mass (Fig. 1): 24 hours after administration, Cn-Ga-DP-diAsp; for photograph of a cancer mass (Fig. 2): n = even numbers; for photograph of a cancer mass (Fig. 1): n = odd numbers
Method: Cancer bearing hamsters of Experiment 1 were i.v. administered the test substance C6-Ga-DP-diAsp (10) (10 mg/ml) which had been diluted with phosphate buffer at 25 mg/kg bodyweight and 12.5 mg/kg bodyweight respectively. The animals were exsanguinated and autopsied at 24 hours after administration, and observed.
The evaluation was based on the four scales of G4, G3, G2 and G1.

[2] = tested on: nitrosoamine-induced pancreatic cancer; test: laser irradiation to the extirpated organ (excited fluorescent spectrum, N2-PLS measurement), tumor to tissue ratio; type: in vivo, Golden hamsters; conditions: i.v. 25 mg/kg bodyweight, organs extirpated at 24 hours after administration
Method: Golden hamsters (males, 5 per group, bodyweight approximately 150 g) were implanted subcutaneously tumor cells of the nitrosoamine-induced pancreatic cancer. After 14 to 21 days following implantation, animals were intravenously (i.v.) administered the test substance EG-Ga-DP-diGly (10 mg/ml) which had been diluted with phosphate buffer at 25 mg/kg bodyweight. At 24 hours after administration, the organs including the tumor were extirpated, irradiated with N2-pulsed laser (N2, 337 nm, 2 ns, 400 - 1000 nm), and measured of excited fluorescent spectrum. The wavelengths of 600 - 900 nm were studied using the peak wavelength of NADH at 470 nm as a reference. (N2-PLS measurement). […] (Tumor to tissue ratio).
Excited fluorescent spectra of the organs extirpated at 24 hours after administration were measured, and the peak wavelength at 600 - 900 nm was calculated by setting the peak wavelength at 470 nm as the reference 1. As fluorescence in Mn, Fe and Cu complexes is not sufficiently intense as to enable N2-PLS measurement, the extraction method was applied to these compounds. At 24 hours following administration, the organs were extracted with an organic solvent (such as chloroform-methanol) via acetone powder, and the obtained extract was measured of UV or HPLC to calculate the tumor to tissue ratio.

[3] = luminescence properties of porphyrin derivatives (Table 1); type: physicochemical
Description: There are two stages of destruction; Mechanism I under which the pigments are excited by light to assume the triple state which directly destroys the cancer cells, and Mechanism II under which the pigments in the triple state further excite oxygen to form the singlet state oxygen (activated oxygen) leading to cell necrosis. In the case of porphyrin derivatives, the Mechanism II is considered prevalent. By measuring the triple state life time (the fluorescence and phosphorescence life time) which indicates porphyrin's triple state, the length of phosphorescence life time is compared to reveal the intensity of photo-sensitivity. […] In other words, phosphorescence life time of metalloporphyrins coordinated with such metals as Zn and Ga is long while that of those coordinated with Mn, Fe, or Cu is very short.

SMILES: COC(C)C1=C(C)C2=Cc3c(C(C)OC)c(C)c4[n]3[Ga][n]3c(c(C)c(CCC(=O)NC(CC(=O)O)C(=O)O)c3=CC3=NC(=C4)C(C)=C3CCC(=O)NC(CC(=O)O)C(=O)O)=CC1=N2 (centres unmarked) [(4) C1-Ga-DP-diAsp, 2,4-bis(1-methoxyethyl)-Ga-deuteroporphynyl diaspartic acid]
Hemorrhagic necrosis effect [1]: G1 | tumor/tissue cancer/ kidney [2]: 2.27 | tumor/tissue cancer/ liver [2]: 1.19 | tumor/tissue cancer/ lung [2]: 0.78 | tumor/tissue cancer/ serum [2]: 2.50

SMILES: CCOC(C)C1=C(C)C2=Cc3c(C(C)OCC)c(C)c4[n]3[Ga][n]3c(c(C)c(CCC(=O)NC(CC(=O)O)C(=O)O)c3=CC3=NC(=C4)C(C)=C3CCC(=O)NC(CC(=O)O)C(=O)O)=CC1=N2 (centres unmarked) [(5) C2-Ga-DP-diAsp, 2,4-bis(1-ethoxyethyl)-Ga-deuteroporphynyl diaspartic acid]
photograph of a cancer mass (Fig. 2) [1]: hemorrhagic necrosis | Hemorrhagic necrosis effect [1]: G1 | tumor/tissue cancer/ kidney [2]: 1.25 | tumor/tissue cancer/ liver [2]: 0.71 | tumor/tissue cancer/ lung [2]: 1.25 | tumor/tissue cancer/ serum [2]: 1.16

SMILES: CCCOC(C)C1=C(C)C2=Cc3c(C(C)OCCC)c(C)c4[n]3[Ga][n]3c(c(C)c(CCC(=O)NC(CC(=O)O)C(=O)O)c3=CC3=NC(=C4)C(C)=C3CCC(=O)NC(CC(=O)O)C(=O)O)=CC1=N2 (centres unmarked) [(6) C3-Ga-DP-diAsp, 2,4-bis(1-propoxyethyl)-Ga-deuteroporphynyl diaspartic acid]
photograph of a cancer mass (Fig. 1) [1]: hemorrhagic necrosis | Hemorrhagic necrosis effect [1]: G2 | tumor/tissue cancer/ kidney [2]: 14.44 | tumor/tissue cancer/ liver [2]: 2.95 | tumor/tissue cancer/ lung [2]: 3.42 | tumor/tissue cancer/ serum [2]: 5.91

SMILES: CC1=C(CCC(=O)NC(CC(=O)O)C(=O)O)C2=NC1=Cc1c(C)c(C(C)OC(C)C)c3[n]1[Ga][n]1c(c(C)c(CCC(=O)NC(CC(=O)O)C(=O)O)c1=C2)=CC1=NC(=C3)C(C)=C1C(C)OC(C)C (centres unmarked) [(7) C3(iso)-Ga-DP-diAsp, 2,4-bis(1-isopropoxyethyl)-Ga-deuteroporphynyl diaspartic acid]
Hemorrhagic necrosis effect [1]: G2 | tumor/tissue cancer/ kidney [2]: 3.03 | tumor/tissue cancer/ liver [2]: 2.63 | tumor/tissue cancer/ lung [2]: 2.33 | tumor/tissue cancer/ serum [2]: 1.54

SMILES: CCCCOC(C)C1=C(C)C2=Cc3c(C(C)OCCCC)c(C)c4[n]3[Ga][n]3c(c(C)c(CCC(=O)NC(CC(=O)O)C(=O)O)c3=CC3=NC(=C4)C(C)=C3CCC(=O)NC(CC(=O)O)C(=O)O)=CC1=N2 (centres unmarked) [(8) C4-Ga-DP-diAsp, 2,4-bis(1-butoxyethyl)-Ga-deuteroporphynyl diaspartic acid]
photograph of a cancer mass (Fig. 2) [1]: hemorrhagic necrosis | photograph of a cancer mass (Fig. 1) [1]: hemorrhagic necrosis | Hemorrhagic necrosis effect [1]: G4 | tumor/tissue cancer/ kidney [2]: 7.72 | tumor/tissue cancer/ liver [2]: 3.54 | tumor/tissue cancer/ lung [2]: 4.47 | tumor/tissue cancer/ serum [2]: 2.00

SMILES: CCCCCOC(C)C1=C(C)C2=Cc3c(C(C)OCCCCC)c(C)c4[n]3[Ga][n]3c(c(C)c(CCC(=O)NC(CC(=O)O)C(=O)O)c3=CC3=NC(=C4)C(C)=C3CCC(=O)NC(CC(=O)O)C(=O)O)=CC1=N2 (centres unmarked) [(9) C5-Ga-DP-diAsp, 2,4-bis(1-pentyloxyethyl)-Ga-deuteroporphynyl diaspartic acid]
photograph of a cancer mass (Fig. 1) [1]: hemorrhagic necrosis | Hemorrhagic necrosis effect [1]: G4 | tumor/tissue cancer/ kidney [2]: 6.58 | tumor/tissue cancer/ liver [2]: 4.07 | tumor/tissue cancer/ lung [2]: 3.89 | tumor/tissue cancer/ serum [2]: 0.89

SMILES: CCCCCCCOC(C)C1=C(C)C2=Cc3c(C(C)OCCCCCCC)c(C)c4[n]3[Ga][n]3c(c(C)c(CCC(=O)NC(CC(=O)O)C(=O)O)c3=CC3=NC(=C4)C(C)=C3CCC(=O)NC(CC(=O)O)C(=O)O)=CC1=N2 (centres unmarked) [(11) C7-Ga-DP-diAsp, 2,4-bis(1-heptyloxyethyl)-Ga-deuteroporphynyl diaspartic acid]
photograph of a cancer mass (Fig. 1) [1]: hemorrhagic necrosis | Hemorrhagic necrosis effect [1]: G4 | tumor/tissue cancer/ kidney [2]: 4.88 | tumor/tissue cancer/ liver [2]: 2.96 | tumor/tissue cancer/ lung [2]: 2.92 | tumor/tissue cancer/ serum [2]: 0.89

SMILES: CC1=C(CCC(=O)NC(CC(=O)O)C(=O)O)C2=NC1=Cc1c(C)c(C(C)OCCc3ccccc3)c3[n]1[Ga][n]1c(c(C)c(CCC(=O)NC(CC(=O)O)C(=O)O)c1=C2)=CC1=NC(=C3)C(C)=C1C(C)OCCc1ccccc1 (centres unmarked) [(14) C8(Phenethyl)-Ga-DP-diAsp, 2,4-bis(1-phenethyloxyethyl)-Ga-deuteroporphynyl diaspartic acid]
Hemorrhagic necrosis effect [1]: G1 | tumor/tissue cancer/ kidney [2]: 3.79 | tumor/tissue cancer/ liver [2]: 3.79 | tumor/tissue cancer/ lung [2]: 2.89 | tumor/tissue cancer/ serum [2]: 0.72

SMILES: CCCCCCCCCOC(C)C1=C(C)c2cc3[nH]c(cc4nc(cc5[nH]c(cc1n2)c(C)c5C(C)OCCCCCCCCC)C(C)=C4CCC(=O)NC(CC(=O)O)C(=O)O)c(CCC(=O)NC(CC(=O)O)C(=O)O)c3C.[Ga] (centres unmarked) [(15) C9-Ga-DP-diAsp, 2,4-bis(1-nonyloxyethyl)-Ga-deuteroporphynyl diaspartic acid]
photograph of a cancer mass (Fig. 1) [1]: hemorrhagic necrosis | Hemorrhagic necrosis effect [1]: G2 | tumor/tissue cancer/ kidney [2]: 3.54 | tumor/tissue cancer/ liver [2]: 2.07 | tumor/tissue cancer/ lung [2]: 3.40 | tumor/tissue cancer/ serum [2]: 1.12

SMILES: CC(C)=CCC/C(C)=C/COC(C)C1=C(C)C2=Cc3c(C(C)OC/C=C(\C)CCC=C(C)C)c(C)c4[n]3[Ga][n]3c(c(C)c(CCC(=O)NC(CC(=O)O)C(=O)O)c3=CC3=NC(=C4)C(C)=C3CCC(=O)NC(CC(=O)O)C(=O)O)=CC1=N2 (centres unmarked) [(17) C10(Gera)-Ga-DP-diAsp, 2,4-bis(1-geranyloxyethyl)-Ga-deuteroporphynyl diaspartic acid]
Hemorrhagic necrosis effect [1]: G2 | tumor/tissue cancer/ kidney [2]: 3.82 | tumor/tissue cancer/ liver [2]: 3.33 | tumor/tissue cancer/ lung [2]: 4.88 | tumor/tissue cancer/ serum [2]: 2.19

SMILES: CC(C)=CCCC(C)CCOC(C)C1=C(C)C2=Cc3c(C(C)OCCC(C)CCC=C(C)C)c(C)c4[n]3[Ga][n]3c(c(C)c(CCC(=O)NC(CC(=O)O)C(=O)O)c3=CC3=NC(=C4)C(C)=C3CCC(=O)NC(CC(=O)O)C(=O)O)=CC1=N2 (centres unmarked) [(18) C10(Citro)-Ga-DP-diAsp, 2,4-bis(1-citronellyloxyethyl)-Ga-deuteroporphynyl diaspartic acid]
Hemorrhagic necrosis effect [1]: G2 | tumor/tissue cancer/ kidney [2]: 15.66 | tumor/tissue cancer/ liver [2]: 11.37 | tumor/tissue cancer/ lung [2]: 12.39 | tumor/tissue cancer/ serum [2]: 2.82

Now from value to compound, other results behind:

tumor/tissue cancer/ kidney [2]: 11.49 | tumor/tissue cancer/ liver [2]: 9.09 | tumor/tissue cancer/ lung [2]: 11.11 | tumor/tissue cancer/ serum [2]: 3.50
SMILES: CC1=C(CCC(=O)NC(CC(=O)O)C(=O)O)C2=NC1=Cc1c(C)c(C(C)OCCC(C)CCCC(C)C)c3[n]1[Ga][n]1c(c(C)c(CCC(=O)NC(CC(=O)O)C(=O)O)c1=C2)=CC1=NC(=C3)C(C)=C1C(C)OCCC(C)CCCC(C)C (centres unmarked) [(19) C10(H2Citro)-Ga-DP-diAsp, 2,4-bis(1-dihydrocitronellyloxyethyl)-Ga-deuteroporphynyl diaspartic acid]
Hemorrhagic necrosis effect [1]: G2

tumor/tissue cancer/ kidney [2]: 8.54 | tumor/tissue cancer/ liver [2]: 4.38 | tumor/tissue cancer/ lung [2]: 7.00 | tumor/tissue cancer/ serum [2]: 1.35
SMILES: CCCCCCCCCCCCOC(C)C1=C(C)c2cc3[nH]c(cc4nc(cc5[nH]c(cc1n2)c(C)c5C(C)OCCCCCCCCCCCC)C(C)=C4CCC(=O)NC(CC(=O)O)C(=O)O)c(CCC(=O)NC(CC(=O)O)C(=O)O)c3C.[Ga] (centres unmarked) [(22) C12-Ga-DP-diAsp, 2,4-bis (1-dodecyloxyethyl)-Ga-deuteroporphynyl diaspartic acid]
photograph of a cancer mass (Fig. 2) [1]: hemorrhagic necrosis | Hemorrhagic necrosis effect [1]: G2

Absorbance [3]: 570 nm
SMILES: C=CC1=C(C)c2cc3[n-]c(cc4nc(cc5[n-]c(cc1n2)c(C)c5CCC(=O)OC)C(CCC(=O)OC)=C4C)c(C)c3C=C.[Co+2] [Co-PP-Me]

Absorbance [3]: 572 nm | Phosphorescence [3]: 705 nm | Phosphorescence life time ([3]; Filter paper): 20 µs | Phosphorescence life time ([3]; Solution): 100 µs
SMILES: C=CC1=C(C)c2cc3[n-]c(cc4nc(cc5[n-]c(cc1n2)c(C)c5CCC(=O)OC)C(CCC(=O)OC)=C4C)c(C)c3C=C.[Cu+2] [Cu-PP-Me]

Absorbance [3]: 590 nm | Fluorescence [3]: 600 nm
SMILES: C=CC1=C(C)c2cc3[n-]c(cc4nc(cc5[n-]c(cc1n2)c(C)c5CCC(=O)OC)C(CCC(=O)OC)=C4C)c(C)c3C=C.[Mg+2] [Mg-PP-Me]
